Measured values as given in patent US20210205195A1, “PRESERVED COMPOSITIONS” (Conopco, Inc., d/b/a UNILEVER, priority 2018, published 2021).

Experiments:
[1] = system: Enterobacter cloacae, Klebsiella sp; experiment: Modified Ph. Eur. 5.1.3 microbial challenge test in hair conditioner, Pool 2 (Gram negative fermenters); format: cell-based
Experimental: (§1) Itaconic acid, lactic acid and citric acid were purchased from Sigma-Aldrich. Six samples of unpreserved conditioner were dosed with 0.5% and 1% (w/w) itaconic acid, citric acid and lactic acid separately. An unpreserved sample was kept as a control. Each dosed product was adjusted to pH 5 using 50% sodium hydroxide (Sigma-Aldrich). A modified challenge test to that of the European Pharmacopoeia (Ph. Eur. Or EP) 5.1.3 criteria was performed on a subsample of unpreserved and each dosed product. The microbial challenge pools were added to each sample container at a ratio of 1:100. The final concentration of inoculum in the product should be 5×10^6 CFU/G of test product. Each product is mixed with a sterile spatula to ensure a homogenous distribution of the inocula throughout the product. [table] Both the inoculum level and the level of microorganism within each sample was quantified using a Total Viable Count (TVC) pour plate method at 7, 14, 21 and 28 days. A 1:10 dilution was made with a subsample of each product, performed separately in Peptone (0.1%)/tween 80 (2%) neutralising agent. A 1:10 and 1:100 dilution of each subsample was performed and pour plates produced at each dilution using tryptone soya agar. Plates were incubated at 28° C. for 48 hours and then examined for growth. Visible colonies were counted with the aid of a Quebec Colony Counter and recorded for analysis against the challenge test criteria. During the removal of a subsample of product for TVC, a reinoculation is performed at 7 and 14 days, reintroducing 5×10^6 CFU/G of bacteria before mixing using a sterile spatula to homogenise the reinoculation. [table]

[2] = system: Pseudomonas aeruginosa, Burkholderia cepacia, Strenotrophomonas sp; experiment: Modified Ph. Eur. 5.1.3 microbial challenge test in hair conditioner, Pool 1 (Gram negative non-fermenters); format: cell-based
Experimental: as §1

[3] = 0.5% (w/w) in conditioner, pH 5, Pool 2, 7 days
[4] = 0.5% (w/w) in conditioner, pH 5, Pool 2, 14 days
[5] = 0.5% (w/w) in conditioner, pH 5, Pool 2, 21 days
[6] = 0.5% (w/w) in conditioner, pH 5, Pool 2, 28 days
[7] = 1% (w/w) in conditioner, pH 5, Pool 2, 7 days
[8] = 1% (w/w) in conditioner, pH 5, Pool 2, 14 days
[9] = 1% (w/w) in conditioner, pH 5, Pool 2, 21 days
[10] = 1% (w/w) in conditioner, pH 5, Pool 2, 28 days
[11] = 0.5% (w/w) in conditioner, pH 5, Pool 1, 7 days
[12] = 0.5% (w/w) in conditioner, pH 5, Pool 1, 14 days
[13] = 0.5% (w/w) in conditioner, pH 5, Pool 1, 21 days
[14] = 0.5% (w/w) in conditioner, pH 5, Pool 1, 28 days
[15] = 1% (w/w) in conditioner, pH 5, Pool 1, 7 days
[16] = 1% (w/w) in conditioner, pH 5, Pool 1, 14 days
[17] = 1% (w/w) in conditioner, pH 5, Pool 1, 21 days
[18] = 1% (w/w) in conditioner, pH 5, Pool 1, 28 days

Row | Structure (SMILES) | Microbial Log reduction [1, 3] | Microbial Log reduction [1, 4] | Microbial Log reduction [1, 5] | Microbial Log reduction [1, 6] | Microbial Log reduction [1, 7] | Microbial Log reduction [1, 8] | Microbial Log reduction [1, 9] | Microbial Log reduction [1, 10] | Microbial Log reduction [2, 11] | Microbial Log reduction [2, 12] | Microbial Log reduction [2, 13] | Microbial Log reduction [2, 14] | Microbial Log reduction [2, 15] | Microbial Log reduction [2, 16] | Microbial Log reduction [2, 17] | Microbial Log reduction [2, 18]
1 | O=C(O)CC(O)(CC(=O)O)C(=O)O [Citric acid, citric acid] | 3.20 | 2.28 | <2.82 | 2.72 | 4.67 | 2.86 | <2.82 | 3.69 | >5.85 | >5.89 | >5.79 | >5.79 | >5.85 | >5.89 | >5.79 | >5.79
2 | C=C(CC(=O)O)C(=O)O [Itaconic acid] | >5.72 | >5.61 | >5.82 | >5.82 | >5.72 | >5.61 | >5.82 | >5.82 | >5.85 | >5.89 | >5.79 | >5.79 | >5.85 | >5.89 | >5.79 | >5.79
3 | CC(O)C(=O)O (stereo not drawn) [Lactic acid, lactic acid] | 3.73 | 3.70 | <2.82 | <2.82 | 3.69 | 3.58 | 4.02 | 4.62 | >5.85 | >5.89 | >5.79 | >5.79 | >5.85 | >5.89 | >5.79 | >5.79
